Test results taken from US8471005B2 (Cephalon, Inc., priority 2008, dated 2013).
Where two headings read alike, the source gives them in different places.

Legend:
ALK = target: T1, ALK (Homo sapiens, UniProt Q9UM73); assay: ALK Kinase Assay (ELISA/TRF, PLC-γ substrate); assay type: biochemical; settings: read-out: ALK Potency
T1 construct: host or cells: baculovirus expression system
Procedure: Briefly, each 96-well plate was coated with […] of 10 μg/mL substrate (phospholipase C-γ) in Tris-buffered saline (TBS). […] The reaction was initiated by adding enzyme (30 ng/ml ALK) and was allowed to proceed at 37° C. for 15 minutes. Detection of the phosphorylated product was performed by adding 100 μl/well of Eu—N1 labeled PT66 antibody (Perkin Elmer # AD0041).
Data analysis was performed using ActivityBase (IDBS, Guilford, UK). IC50 values were calculated by plotting percent inhibition versus log10 of the concentration of compound and fitting to the nonlinear regression sigmoidal dose-response (variable slope) equation in XLFit (IDBS, Guilford, UK).

JAK2 = target: T2, JAK2 (Homo sapiens, UniProt O60674); assay: Recombinant Human JAK2 Kinase Assay (TRF); assay type: biochemical; settings: read-out: JAK2 Potency
T2 construct: host or cells: baculovirus expression system
T2 sequence (O60674 whole entry): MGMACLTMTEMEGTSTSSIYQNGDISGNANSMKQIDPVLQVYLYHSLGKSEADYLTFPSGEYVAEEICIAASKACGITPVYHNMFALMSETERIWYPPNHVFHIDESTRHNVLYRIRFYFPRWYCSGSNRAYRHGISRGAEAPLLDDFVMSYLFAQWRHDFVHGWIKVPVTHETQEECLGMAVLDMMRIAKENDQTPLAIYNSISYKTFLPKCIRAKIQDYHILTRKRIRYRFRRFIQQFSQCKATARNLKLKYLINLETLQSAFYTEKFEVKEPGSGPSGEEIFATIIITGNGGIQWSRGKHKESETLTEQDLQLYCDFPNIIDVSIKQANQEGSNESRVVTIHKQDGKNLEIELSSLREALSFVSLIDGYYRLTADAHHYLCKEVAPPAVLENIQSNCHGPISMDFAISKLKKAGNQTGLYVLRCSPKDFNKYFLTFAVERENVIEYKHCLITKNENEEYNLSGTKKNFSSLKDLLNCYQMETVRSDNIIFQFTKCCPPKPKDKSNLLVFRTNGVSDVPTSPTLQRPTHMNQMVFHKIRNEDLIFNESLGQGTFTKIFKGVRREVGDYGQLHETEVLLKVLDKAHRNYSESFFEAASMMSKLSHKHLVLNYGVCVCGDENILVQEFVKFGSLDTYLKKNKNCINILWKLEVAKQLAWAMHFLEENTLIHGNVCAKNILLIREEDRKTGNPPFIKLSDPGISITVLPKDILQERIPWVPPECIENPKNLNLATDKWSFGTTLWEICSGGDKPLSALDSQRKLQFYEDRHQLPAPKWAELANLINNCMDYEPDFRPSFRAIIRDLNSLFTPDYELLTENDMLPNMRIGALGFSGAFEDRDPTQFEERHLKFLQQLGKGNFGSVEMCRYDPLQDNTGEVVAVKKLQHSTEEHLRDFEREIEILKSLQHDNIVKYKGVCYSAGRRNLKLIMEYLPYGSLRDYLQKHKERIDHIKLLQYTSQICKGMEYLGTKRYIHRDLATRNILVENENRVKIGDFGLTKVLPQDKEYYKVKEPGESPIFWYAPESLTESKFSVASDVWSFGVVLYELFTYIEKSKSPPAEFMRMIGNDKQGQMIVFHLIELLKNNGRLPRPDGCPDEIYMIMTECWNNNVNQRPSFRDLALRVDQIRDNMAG
Procedure: Compounds were tested for their ability to inhibit the kinase activity of baculovirus-expressed JAK2 using the TRF detection system. […] The plates were coated first with 100 μL/well of 10 μg/mL Neutravidin (Pierce #31000, Rockford, Ill.) in TBS at 37° C. for 2 hours, followed by 100 μL/well of 1 μg/mL 15-mer peptide substrate (biotinyl-amino-hexanoyl-[…]-amide, Infinity Biotech Research and Resource, Aston, Pa.) at 37° C. for another hour. The JAK2 assay mixture (total volume=100 μL/well) consisting of 20 mM HEPES (pH 7.2), 0.2 μM ATP, 1 mM MnCl2, 0.1% BSA, and test compound (diluted in DMSO; 2.5% DMSO final in assay) was then added to the assay plate. Enzyme (15 ng/ml JAK2) was added and the reaction was allowed to proceed at room temperature for 20 minutes. Detection of the phosphorylated product was performed by adding 100 μL/well of Eu—N1 labeled PY100 antibody (PerkinElmer Life Sciences #AD0041, Boston, Mass.).

[1] = ALK kinase inhibition, 1 μM ATP
[2] = JAK2 kinase inhibition, 0.2 μM ATP

T1 sequence (Q9UM73 19-1620): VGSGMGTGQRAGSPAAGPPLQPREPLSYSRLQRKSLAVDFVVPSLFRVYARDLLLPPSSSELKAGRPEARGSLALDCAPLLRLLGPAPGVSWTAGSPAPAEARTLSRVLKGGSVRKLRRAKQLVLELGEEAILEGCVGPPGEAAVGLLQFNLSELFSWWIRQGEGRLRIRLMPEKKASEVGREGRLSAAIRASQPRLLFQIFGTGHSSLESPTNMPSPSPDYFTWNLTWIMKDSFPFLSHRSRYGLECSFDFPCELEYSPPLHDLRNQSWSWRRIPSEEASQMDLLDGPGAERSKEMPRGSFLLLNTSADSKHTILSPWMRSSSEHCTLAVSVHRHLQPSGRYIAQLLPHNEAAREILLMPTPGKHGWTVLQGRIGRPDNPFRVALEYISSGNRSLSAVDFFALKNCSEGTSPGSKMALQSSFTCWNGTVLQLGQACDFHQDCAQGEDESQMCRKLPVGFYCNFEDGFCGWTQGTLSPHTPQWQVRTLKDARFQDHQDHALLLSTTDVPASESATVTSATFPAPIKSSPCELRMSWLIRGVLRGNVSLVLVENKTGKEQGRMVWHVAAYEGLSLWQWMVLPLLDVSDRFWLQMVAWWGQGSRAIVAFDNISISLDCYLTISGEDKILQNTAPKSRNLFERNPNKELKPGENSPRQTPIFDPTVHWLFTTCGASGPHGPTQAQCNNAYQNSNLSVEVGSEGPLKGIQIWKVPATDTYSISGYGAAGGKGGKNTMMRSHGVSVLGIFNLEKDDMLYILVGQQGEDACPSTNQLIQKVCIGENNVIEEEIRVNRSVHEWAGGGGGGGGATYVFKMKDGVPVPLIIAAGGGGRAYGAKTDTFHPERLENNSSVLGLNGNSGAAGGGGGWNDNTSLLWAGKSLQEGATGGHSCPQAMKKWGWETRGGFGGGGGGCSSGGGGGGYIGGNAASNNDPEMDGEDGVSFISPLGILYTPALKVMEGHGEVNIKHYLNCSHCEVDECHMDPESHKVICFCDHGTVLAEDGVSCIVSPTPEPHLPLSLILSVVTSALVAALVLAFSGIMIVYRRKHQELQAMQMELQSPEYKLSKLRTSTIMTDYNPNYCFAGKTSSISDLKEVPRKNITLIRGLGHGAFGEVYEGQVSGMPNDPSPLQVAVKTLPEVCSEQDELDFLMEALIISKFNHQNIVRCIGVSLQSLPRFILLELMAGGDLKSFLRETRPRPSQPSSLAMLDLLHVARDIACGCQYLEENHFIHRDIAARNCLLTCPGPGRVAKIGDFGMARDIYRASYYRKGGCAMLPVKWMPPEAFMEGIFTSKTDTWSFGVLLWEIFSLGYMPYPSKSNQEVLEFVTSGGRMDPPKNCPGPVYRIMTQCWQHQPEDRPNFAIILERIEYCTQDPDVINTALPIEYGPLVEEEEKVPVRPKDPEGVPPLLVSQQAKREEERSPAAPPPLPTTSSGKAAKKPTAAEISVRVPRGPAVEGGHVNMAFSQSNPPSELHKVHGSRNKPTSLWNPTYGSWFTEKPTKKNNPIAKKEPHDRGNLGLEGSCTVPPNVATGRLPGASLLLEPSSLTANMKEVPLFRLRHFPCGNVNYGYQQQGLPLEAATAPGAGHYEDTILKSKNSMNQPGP

Compound	IC50 (ALK; ALK Kinase Inhibition)	IC50 (JAK2; [2])	also measured
1-[7-(2-Methoxy-phenyl)-pyrrolo[2,1-f][1,2,4]triazin-2-yl]-1H-imidazo[4,5-c]pyridine [Example 322]	1000 to 10000 nM		IC50 (JAK2; JAK2 Kinase Inhibition): 100 to 1000 nM
2-Methyl-propane-2-sulfonic acid (3-{2-[4-(4-diethylamino-piperidin-1-yl)-phenylamino]-pyrrolo[2,1-f][1,2,4]triazin-7-yl}-phenyl)-amide [Example 1217]		< 100 nM	IC50 (ALK; [1]): < 100 nM
3-(2-{2-[3-(2-Methoxy-1-methyl-ethoxy)-phenylamino]-pyrrolo[2,1-f][1,2,4]triazin-7-yl}-pyrrol-1-yl)-propionitrile [Example 1295]		100 to 1000 nM	IC50 (ALK; [1]): > 10000 nM
4-[2-(4-Morpholin-4-yl-phenylamino)-pyrrolo[2,1-f][1,2,4]triazin-7-yl]-piperidine-1-carboxylic acid tert-butyl ester [Example 1128]		< 100 nM	IC50 (ALK; [1]): > 10000 nM
7-(2-Methoxy-phenyl)-2-(2-methoxy-4-piperazin-1-ylmethyl-phenoxy)-pyrrolo[2,1-f][1,2,4]triazine [Example 1238]		100 to 1000 nM	IC50 (ALK; [1]): < 100 nM
7-(2-methoxy-phenyl)-pyrrolo(2,1-f)(1,2,4)triazin-2-yl-6-amino-1′-methyl-spiro(2H-1-benzopyran-2,4′-piperidine) [Example 377]	< 100 nM		IC50 (JAK2; JAK2 Kinase Inhibition): < 100 nM
COc1cc([C@@]2(O)CCN(C)C[C@@H]2O)ccc1Nc1ncc2ccc(-c3ccccc3OC)n2n1 (racemic) [Example 829, (±)-(3S,4S)-4-{3-Methoxy-4-[7-(2-methoxy-phenyl)-pyrrolo[2,1-f][1,2,4]triazin-2-ylamino]-phenyl}-1-methyl-piperidine-3,4-diol]		< 100 nM	
COc1cc(C2CCN(C)CC2O)ccc1Nc1ncc2ccc(-c3ccccc3OC)n2n1 (racemic) [Example 830, (±)-4-{3-Methoxy-4-[7-(2-methoxy-phenyl)-pyrrolo[2,1-f][1,2,4]triazin-2-ylamino]-phenyl}-1-methyl-piperidin-3-ol]		< 100 nM	
COc1cc([C@@]2(O)CCN(C(=O)OC(C)(C)C)C[C@@H]2O)ccc1Nc1ncc2ccc(-c3ccccc3OC)n2n1 (racemic) [Example 831, (±)-(3S,4S)-3,4-Dihydroxy-4-{3-methoxy-4-[7-(2-methoxy-phenyl)-pyrrolo[2,1-f][1,2,4]triazin-2-ylamino]-phenyl}-piperidine-1-carboxylic acid tert-butyl ester]		100 to 1000 nM	
COc1cc([C@@]2(O)CCNC[C@@H]2O)ccc1Nc1ncc2ccc(-c3ccccc3OC)n2n1 (racemic) [Example 832, (±)-(3S,4S)-4-{3-Methoxy-4-[7-(2-methoxy-phenyl)-pyrrolo[2,1-f][1,2,4]triazin-2-ylamino]-phenyl}-piperidine-3,4-diol]		< 100 nM	
COc1cc([C@@H]2CCNC[C@@H]2O)ccc1Nc1ncc2ccc(-c3ccccc3OC)n2n1 (racemic) [Example 835, (±)-(3R,4S)-4-{3-Methoxy-4-[7-(2-methoxy-phenyl)-pyrrolo[2,1-f][1,2,4]triazin-2-ylamino]-phenyl}-piperidin-3-ol]		100 to 1000 nM	
COc1cc([C@@H]2CCN(CC(N)=O)C[C@@H]2O)ccc1Nc1ncc2ccc(-c3ccccc3OC)n2n1 (racemic) [Example 839, (±)-2-43R,4S)-3-Hydroxy-4-{3-methoxy-4-[7-(2-methoxy-phenyl)-pyrrolo[2,1-f][1,2,4]triazin-2-ylamino]-phenyl}-piperidin-1-yl)-acetamide]		100 to 1000 nM	
COc1cc([C@@]2(O)CCNC[C@@H]2O)ccc1Nc1ncc2ccc(-c3ccccc3N(C)S(C)(=O)=O)n2n1 (racemic) [Example 840, (±)-N-(2-{2-[4-((3S,4S)-3,4-Dihydroxy-piperidin-4-yl)-2-methoxy-phenylamino]-pyrrolo[2,1-f][1,2,4]triazin-7-yl}-phenyl)-N-methyl-methanesulfonamide]		1000 to 10000 nM	
COc1cc([C@@]2(O)CCN(CC(N)=O)C[C@@H]2O)ccc1Nc1ncc2ccc(-c3ccccc3N(C)S(C)(=O)=O)n2n1 (racemic) [Example 844, (±)-2-[(3S,4S)-3,4-Dihydroxy-4-(4-{7-[2-(methanesulfonyl-methyl-amino)-phenyl]-pyrrolo[2,1-f][1,2,4]triazin-2-ylamino}-3-methoxy-phenyl)-piperidin-1-yl]-acetamide]		100 to 1000 nM	
COc1cc([C@@H]2CCN(CCO)C[C@@H]2O)ccc1Nc1ncc2ccc(-c3ccccc3OC)n2n1 (racemic) [Example 848, (±)-(3R,4S)-1-(2-Hydroxy-ethyl)-4-{3-methoxy-4-[7-(2-methoxy-phenyl)-pyrrolo[2,1-f][1,2,4]triazin-2-ylamino]-phenyl}-piperidin-3-ol]		< 100 nM	
COc1cc([C@@]2(O)CCN(CC(N)=O)C[C@@H]2O)ccc1Nc1ncc2ccc(-c3ccccc3OC)n2n1 (racemic) [Example 849, (±)-2-43S,4S)-3,4-Dihydroxy-4-{3-methoxy-4-[7-(2-methoxy-phenyl)-pyrrolo[2,1-f][1,2,4]triazin-2-ylamino]-phenyl}-piperidin-1-yl)-acetamide]		< 100 nM	
COc1cc([C@@H]2CCNC[C@H]2O)ccc1Nc1ncc2ccc(-c3ccccc3OC)n2n1 (racemic) [Example 855, (±)-(3S,4S)-4-{3-Methoxy-4-[7-(2-methoxy-phenyl)-pyrrolo[2,1-f][1,2,4]triazin-2-ylamino]-phenyl}-piperidin-3-ol]		100 to 1000 nM	
COc1cc([C@@H]2CCN(CCO)C[C@H]2O)ccc1Nc1ncc2ccc(-c3ccccc3OC)n2n1 (racemic) [Example 856, (±)-(3S,4S)-1-(2-Hydroxy-ethyl)-4-{3-methoxy-4-[7-(2-methoxy-phenyl)-pyrrolo[2,1-f][1,2,4]triazin-2-ylamino]-phenyl}-piperidin-3-ol]		< 100 nM	
COc1ccc(Cl)cc1-c1ccc2cnc(Nc3ccc(C(C)C)c(NC(C)=O)c3)nn12 [Example 302, N-{5-[7-(5-Chloro-2-methoxy-phenyl)-pyrrolo[2,1-f][1,2,4]triazin-2-ylamino]-2-isopropyl-phenyl}-acetamide]			IC50 (JAK2; JAK2 Kinase Inhibition): < 100 nM
CN1CCN(c2ccc(Nc3ncc4cc(-c5cccnc5)cn4n3)cc2)CC1 [Example 1157]		100 to 1000 nM	
C[C@H](O)CN1CCN(c2ccc(Nc3ncc4ccc(-c5ccccc5N(C)S(C)(=O)=O)n4n3)cc2F)CC1 [Example 1423, N-[2-(2-{3-Fluoro-4-[4-((S)-2-hydroxy-propyl)-piperazin-1-yl]-phenylamino}-pyrrolo[2,1-f][1,2,4]triazin-7-yl)-phenyl]-N-methyl-methanesulfonamide]	< 100 nM		
CN1CCN(c2ccc(Nc3ncc4ccc(-c5ccccc5N(C)S(C)(=O)=O)n4n3)cc2Cl)CC1 [Example 1424, N-(2-{2-[3-Chloro-4-(4-methyl-piperazin-1-yl)-phenylamino]-pyrrolo[2,1-f][1,2,4]triazin-7-yl}-phenyl)-N-methyl-methanesulfonamide]	< 100 nM		
COc1cc(N2CCCC(N3CCN(CCO)CC3)C2)ccc1Nc1ncc2ccc(-c3ccccc3OC)n2n1 (stereo not shown) [Example 1443, 2-[4-(1-{3-Methoxy-4-[7-(2-methoxy-phenyl)-pyrrolo[2,1-f][1,2,4]triazin-2-ylamino]-phenyl}-piperidin-3-yl)-piperazin-1-yl]-ethanol]	< 100 nM		
COc1cc(N2CCC(N3CCOCC3)CC2)ccc1Nc1ncc2ccc(-c3cccc(NS(C)(=O)=O)c3)n2n1 [Example 1446, N-(3-{2-[2-Methoxy-4-(4-morpholin-4-yl-piperidin-1-yl)-phenylamino]-pyrrolo[2,1-f][1,2,4]triazin-7-yl}-phenyl)-methanesulfonamide]	< 100 nM		
CCOc1ccccc1-c1ccc2cnc(Nc3ccc(N4CCC(N5CCOCC5)CC4)cc3OC)nn12 [Example 1447, [7-(2-Ethoxy-phenyl)-pyrrolo[2,1-f][1,2,4]triazin-2-yl]-[2-methoxy-4-(4-morpholin-4-yl-piperidin-1-yl)-phenyl]-amine]	< 100 nM		
COc1cc(N2CCCC(N3CCNCC3)C2)ccc1Nc1ncc2ccc(-c3ccccc3OC)n2n1 (stereo not shown) [Example 1448, [7-(2-Methoxy-phenyl)-pyrrolo[2,1-f][1,2,4]triazin-2-yl]-[2-methoxy-4-(3-piperazin-1-yl-piperidin-1-yl)-phenyl]-amine]	< 100 nM		
COc1cc(N2CCC(N3CCOCC3)CC2)ccc1Nc1ncc2ccc(-c3cccc(N(C)S(C)(=O)=O)c3)n2n1 [Example 1449, N-(3-{2-[2-Methoxy-4-(4-morpholin-4-yl-piperidin-1-yl)-phenylamino]-pyrrolo[2,1-f][1,2,4]triazin-7-yl}-phenyl)-N-methyl-methanesulfonamide]	< 100 nM		
N-tert-Butyl-3-{2-[3-fluoro-4-(4-methyl-piperazin-1-yl)-phenylamino]-pyrrolo[2,1-f][1,2,4]triazin-7-yl}-benzenesulfonamide [Example 1216]			IC50 (ALK; [1]): 100 to 1000 nM
